Measurements reported in patent US20030220524A1, “Sulfur containing compounds” (priority 2000, published 2003).
pIC50: −log10 of the molar value. Read-outs that look alike come from different tables or passages of the source.

How the values were obtained:
[1] = system: Normal bone marrow (mononucleated, T-cell depleted); assay: MTT assay; format: cell-based; conditions: 48 h, read-out: MTT50
Method: (§1) All cell lines were assayed as asynchronously growing cells. Leukemic cell lines, OCI-AML-2, OCI-AML-3 (referred to hereafter as AML-2 and AML-3, respectively), NB-4, KK, B1, G2, and W1 were cultured in alpha-minimal essential medium (α-MEM) (Princess Margaret Hospital Media Services) supplemented with 10% fetal bovine serum (FBS) (Sigma, St. Louis, Mo.). Non-transformed, diploid fibroblast lines WI38 and IMR90, were cultured in α-MEM and MEM F-15, respectively supplemented with 10% FBS. Media for IMR90 cells was also supplemented with 1.5 g/L bicarbonate and 1 mM pyruvate. Breast tumour cell lines, MDA-231, SK-BR-3, MCF-7, ZR-751, and melanoma tumour cell lines, WM9, WM983, WM793, 1232, were grown in α-MEM supplemented with 10% fetal bovine serum. Prostate tumour cell lines, DU145 and PC-3, were grown in RPMI 1640 media supplemented with 10% FBS. All cell lines were cultured in the presence of penicillin/streptomycin. Mononucleated cells were isolated from normal bone marrow using Ficoll hypaque and then T-cell depleted. T-cell depletion was performed by incubating the mononucleated bone marrow cells in α-MEM at a concentration of 2×10^7 cells/mL with 10% absor FBS and 10% (v/v) sheep red blood cells for 4 to 16 h. Absor FBS was prepared beforehand by heating FBS at 56° C. for 1 h, incubating with sheep red blood cells at 0.5% (v/v) for 1 h and then filtering the FBS with a […]. The T-cell depleted, mononucleated cells were recovered using Ficoll hypaque and were maintained in α-MEM supplemented with 20% FBS and 10% 5637 ? nditioned media. 5637 conditioned media ? s previously harvested from confluent 5637 cells after a 3 day incubation. Normal bone marrow from bone marrow transplant donor was collected following informed consent according to institutional guidelines.
(§2) Approximately 20 mg of each compound was dissolved in 5 mL of ACS grade acetone (Sigma) using a 5 mL volumetric flask. Stock solutions of the compounds were stored in the dark at −20° C. Compounds were diluted prior to each experiment.
(§3) Adherent cells were seeded at 67×10^3 cells/mL in a 96 well plate (Falcon, Mississauga, Ontario) the day prior to exposure to compound. Suspension cells were seeded at 27×10^4 cells/mL in a 96 well plate the day of exposure to compound. Mononucleated, T-cell depleted normal bone marrow cells were seeded at 67×10^4 cells/mL in a 96 well plate the day of exposure to compound. Compounds and solvent control were added to cells and assayed in triplicate or sextuplet. Following 48 h of incubation at 37° C. with 5% CO2, 40 μL of a 5 mg/mL solution of 3-[4,5-dimethylthiazol-2-yl]-2,5-diphenyltetrazolium bromide (MTT) substrate (Sigma) in Dulbecco's phosphate-buffered saline (D-PBS) was added. After 4 h of incubation at 37° C. with 5% CO2, the resulting violet formazan precipitate was solubilized by the addition of 80 μL of a 0.01 M HCI, 10% sodium dodecyl sulfate (SDS; Sigma) solution overnight at 37° C. with 5% CO2. The plates were then analyzed using the BioRad Benchmark Microplate Reader (BioRad Laboratories, Hercules, Calif.) at 570 nm to determine the optical density of the samples. MTT data was analyzed using Prism 3.0 (GraphPad Software, Inc., San Diego, Calif.) by the Chou-Talalay method. MTT graphs shown are a representative experiment.
(§4) Adherent cells were seeded at 67×10^3 cells/mL in a 96 well plate (Falcon, Mississauga, Ontario) the day prior to exposure to compound. Suspension cells were seeded at 27×10^4 cells/mL in a 96 well plate the day of exposure to compound. Mononucleated, T-cell depleted normal bone marrow cells were seeded at 67×10^4 cells/mL in a 96 well plate the day of exposure to compound. Compounds and solvent control were added to cells and assayed in triplicate or sextuplet. […]

AML-3 leukemic cell line [2] = assay: Fixed propidium iodide staining, flow cytometry; format: cell-based, human; conditions: 48 h
Method: (§5) Adherent cell lines were plated at 35×10^4 cells/60 cm^2 dish the day before exposure to compound. Suspension cells were seeded at 25×10^4 cells/mL in a 6 well dish (Falcon) the day of exposure to compound. Mononucleated, T-cell depleted normal bone marrow cells were seeded at 50×10^4 cells/mL in a 6 well dish the day of exposure to compound. Cells were exposed to solvent control or approximate MTT50 and MTT30 concentrations of the compound. After 48 h of exposure to the compound, cells were harvested, fixed in 80% ethanol for 1 h on ice and labeled with 50 μg/mL propidium iodide (Sigma). Approximately 10^6 cells were analyzed using a XL-MCL flow cytometer (Coulter Corporation, Miami, Fla.) and a FACScalibar cytometer (Becton Dickinson, San Jose, Calif.). Profiles shown are a representative.
as §5, with “cm2” for “cm^2”, “concentrations.” for “concentrations of the compound.”, “representative. Cell viability counts and Pi staining were performed as previously described (Dimitroulakos, J, Nohynek, D, Backway, K L, Hedley, D W, Yeger, H, Freedman, M H, Minden, M D and Penn, L Z: Increased sensitivity of acute myeloid leukemias to lovastatin-induced apoptosis: A potential therapeutic approach. Blood 93: 1308-18, 1999).” for “representative.”

KK leukemic cell line = assay: MTT assay; format: cell-based, human; conditions: 48 h, read-out: MTT50
Method: as §1, §2, §3, §4

[3] = system: WI38 non-transformed diploid fibroblasts; assay: MTT assay; format: cell-based, human; conditions: for pIC50: read-out: MTT50; for Viability of non-transformed human WI38 fibroblasts following exposure: in words
Method: as §1, §2, §3, §4

AML-3 leukemic cell line [4] = assay: MTT assay; format: cell-based, human
Method: as §1, §2, §3, §4

[5] = Homo sapiens, WI-38, 48 h, WI38 (normal), 48 h
[6] = Homo sapiens, AML3, 48 h, AML-3, read-out: MTT50

Compound	pIC50 ([1]; T-cell, Normal bone marrow)	pIC50 (KK leukemic cell line; Homo sapiens, KK)	pIC50 [3, 5]	Viability of non-transformed human WI38 fibroblasts following exposure [3]	pIC50 (AML-3 leukemic cell line [4]; [6])	pIC50 ([3]; WI38 (normal), 48 h)	pIC50 (AML-3 leukemic cell line [4]; AML-3, 48 h, read-out: MTT50)	pIC50 ([1]; Normal bone marrow)	pIC50 (KK leukemic cell line; KK)	also measured
c1ccc(SSc2ccccc2)cc1 [D, diphenyl disulphide]	4.72	4.89	4.34	decreased	5.00	–	–	–	–	% pre-G1 (Fixed PI) (AML-3 leukemic cell line [2]; dose 91.6 uM (20 ug/mL)): 24.1%
CSSc1ccc([N+](=O)[O-])cc1 [M, methyl p-nitrophenyl disulphide]	4.65	4.98	4.86	–	4.82	4.76	5.07	–	–	% pre-G1 (Fixed PI) (AML-3 leukemic cell line [2]; dose 20 uM): 34%; % pre-G1 (Fixed PI) (AML-3 leukemic cell line [2]; dose 40 uM): 56%
CSCSCS(C)(=O)=O [B]	–	–	–	not affected	–	< 3.87	< 3.87	< 3.87	< 3.87	% G2/M (Fixed PI) (AML-3 leukemic cell line [2]; dose 107 uM (20 ug/mL)): 13.4%; % pre-G1 (Fixed PI) (AML-3 leukemic cell line [2]; dose 107 uM (20 ug/mL)): 0.3%
CS(=O)(=O)CSSc1ccccc1 [E, 5-phenyl-2,4,5-trithiapentane 2,2-dioxide]	4.66	4.76	4.34	decreased	4.81	–	–	–	–	% pre-G1 (Fixed PI) (AML-3 leukemic cell line [2]; dose 85.3 uM (20 ug/mL)): 24.5%
CCC(=O)OCSSc1ccccc1 [Compound Q, 1-phenyl-1,2-dithiapropyl propionate]	< 4.00	4.63	< 4.00	–	4.65	–	–	–	–	% G2 increase (Fixed PI) (AML-3 leukemic cell line [2]; dose 20 uM): −5%; % pre-G1 (Fixed PI) (AML-3 leukemic cell line [2]; dose 20 uM): 10%; % G2 increase (Fixed PI) (AML-3 leukemic cell line [2]; dose 40 uM): −9%; % pre-G1 (Fixed PI) (AML-3 leukemic cell line [2]; dose 40 uM): 42%
COC(=O)CSSC [H, methyl 3,4-dithiopentanoate]	–	–	–	not affected	–	< 3.79	4.03	3.44	3.96	% pre-G1 (Fixed PI) (AML-3 leukemic cell line [2]; dose 65.7 uM (10 ug/mL)): 3.6%
CSSCC(=O)c1ccccc1 [Compound P, phenacyl methyl disulphide]	< 4.00	4.19	< 4.00	–	4.29	–	–	–	–	% pre-G1 (Fixed PI) (AML-3 leukemic cell line [2]; dose 50 uM): 7%; % pre-G1 (Fixed PI) (AML-3 leukemic cell line [2]; dose 150 uM): 66%
CSSCS(=O)(=O)c1ccc(C)cc1 [Compound C, α-p-toluenesulfonyl dimethyl disulphide]	–	–	–	decreased	–	4.05	4.77	4.68	4.50	% G2/M (Fixed PI) (AML-3 leukemic cell line [2]; dose 20.2 uM (10 ug/mL)): 11.1%; % pre-G1 (Fixed PI) (AML-3 leukemic cell line [2]; dose 20.2 uM (10 ug/mL)): 10.7%
CSCSSC [Compound N, 2,3,5-trithiahexane]	–	–	–	–	–	–	–	–	–	pIC50 ([1]; T-cell): < 4.00; % G2 increase (Fixed PI) (AML-3 leukemic cell line [2]; dose 50 uM): +17%; % pre-G1 (Fixed PI) (AML-3 leukemic cell line [2]; dose 50 uM): 17%; % G2 increase (Fixed PI) (AML-3 leukemic cell line [2]; dose 150 uM): +14%; % pre-G1 (Fixed PI) (AML-3 leukemic cell line [2]; dose 150 uM): 35%; pIC50 (KK leukemic cell line; Homo sapiens): 4.19; pIC50 ([3]; Homo sapiens, WI-38, 48 h): < 4.00; pIC50 (AML-3 leukemic cell line [4]; Homo sapiens, AML3, 48 h, read-out: MTT50, AML-3): 4.29; pIC50 (AML-3 leukemic cell line [4]; read-out: MTT50, AML-3, 48 h): 4.13
CS(=O)(=O)CSCS(C)(=O)=O [G, 2,4,6-trithiaheptane 2,2,6,6-tetraoxide]	3.94	3.94	3.94	not affected	3.94	–	–	–	–	% G2/M (Fixed PI) (AML-3 leukemic cell line [2]; dose 45.8 uM (10 ug/mL)): 13.5%; % pre-G1 (Fixed PI) (AML-3 leukemic cell line [2]; dose 45.8 uM (10 ug/mL)): 0.3%
CSSCOC(C)=O [I, 2,3-dithiabutyl acetate]	4.48	4.50	4.11	decreased	4.50	–	–	–	–	% pre-G1 (Fixed PI) (AML-3 leukemic cell line [2]; dose 232.8 uM (5 ug/mL)): 23.6%
CS(C)(=O)=O [Compound A, dimethyl sulfone]	–	–	–	not affected	–	< 3.58	< 3.58	< 3.58	< 3.58	% pre-G1 (Fixed PI) (AML-3 leukemic cell line [2]; dose 212 uM (20 ug/mL)): 0.1%
CSSCCS(C)(=O)=O [F, 2,3,6-trithiaheptane 6,6,-dioxide]	–	–	–	not affected	–	< 4.00	4.36	3.94	4.03	% G2/M (Fixed PI) (AML-3 leukemic cell line [2]; dose 45.8 uM (10 ug/mL)): 34.1%; % pre-G1 (Fixed PI) (AML-3 leukemic cell line [2]; dose 45.8 uM (10 ug/mL)): 5.1%
